Results published in patent US6020341A, “Enediyne quinone imines and methods of preparation and use thereof” (priority 1997, dated 2000).
Read-outs that look alike come from different tables or passages of the source.

Legend:
[1] = system: Chinese hamster lung cells resistant to actinomycin D (DC-3F/ADII); assay: Cytotoxicity, DC-3F/ADII; type: cell-based; details: for IC50 / IC90: Cricetulus griseus, DC3F; for IC90: read-out: Cytotoxic Concentration IC90
Source text: (§1) | cell growth by 50% (IC50) in μM.

[2] = system: Human promyelocytic leukemic cell (HL-60); assay: Cytotoxicity, HL-60; type: cell-based
Source text: as §1

[3] = system: Human acute lymphoblastic T cells (CCRF-CEM); assay: Cytotoxicity, CCRF-CEM; type: cell-based; details: for IC50 / IC90: Homo sapiens, CCRF-CEM; for IC90: read-out: Cytotoxic Concentration IC90
Source text: as §1

CCRF-CEM/VBL cells = assay: Cytotoxicity, CCRF-CEM resistant to vinblastine; type: cell-based, human; details: for IC50 / IC90: Homo sapiens, CCRF-CEM; for IC90: read-out: Cytotoxic Concentration IC90
Source text: as §1

CCRF-CEM/VM-1 cells = assay: Cytotoxicity, CCRF-CEM/VM-1; type: cell-based, human; details: for IC50 / IC90: Homo sapiens, CCRF-CEM; for IC90: read-out: Cytotoxic Concentration IC90
Source text: as §1

[4] = system: Human breast adenocarcinoma cells (SK-Br-3); assay: Cytotoxicity, SK-Br-3; type: cell-based
Source text: as §1

[5] = system: Human testicular teratocarcinoma cells (833K); assay: Cytotoxicity, 833K; type: cell-based
Source text: as §1

[6] = system: Chinese hamster lung cells (DC-3F); assay: Cytotoxicity, DC-3F; type: cell-based; details: for IC50 / IC90: Cricetulus griseus, DC3F; for IC90: read-out: Cytotoxic Concentration IC90
Source text: as §1

MT2 cells = assay: Cytotoxicity, MT2; type: cell-based; details: Table 15, MT2
[7] = Table 14, vinblastine-resistant (VLB100)
[8] = Table 3, CCRF-CEM/VBL, EQI-6 = (1)
[9] = Table 3, CCRF-CEM/VM-1, EQI-6 = (1)
[10] = Table 4, DC-3F/ADII, EQI-6 = (1)

actinomycin D
resistance of cell line to actinomycin D ([1]; DC3F/ADII versus DC3F): 32 fold

COc1cc(NS(C)(=O)=O)ccc1Nc1c2ccccc2nc2ccccc12 [m-AMSA, 4'-(9-acridinylamino)methanesulfon-m-anisidide]
IC50 ([2]; Homo sapiens, HL-60, Table 1, HL-60, read-out: IC50): 38.8 nM
IC50 ([2]; Homo sapiens, HL-60, Table 2, HL60, read-out: concentration required to inhibit cell growth by 50% (IC50)): 39 nM
IC50 ([2]; Homo sapiens, HL-60, Table 3, HL-60, read-out: Cytotoxic Concentration IC50): 38.8 nM
IC90 ([2]; Homo sapiens, HL-60, Table 3, HL-60, read-out: Cytotoxic Concentration IC90): 176 nM
Cytotoxic Concentration IC95 ([2]; Table 3, HL-60): 294 nM
ratio of IC50 to EQI-6 (in parentheses) ([2]; Table 3, HL-60, EQI-6 = (1)): 66.9 ×
ratio of IC90 to EQI-6 (in parentheses) ([2]; Table 3, HL-60, EQI-6 = (1)): 67.7 ×
ratio of IC95 to EQI-6 (in parentheses) ([2]; Table 3, HL-60, EQI-6 = (1)): 66.8 ×
IC50 ([3]; Table 1, CCRF-CEM, read-out: IC50): 199 nM
IC50 ([3]; Table 2, CCRF/CEM, read-out: concentration required to inhibit cell growth by 50% (IC50)): 199 nM
IC50 ([3]; Table 3, CCRF-CEM, read-out: Cytotoxic Concentration IC50): 199 nM
IC90 ([3]; Table 3, CCRF-CEM): 1540 nM
IC50 ([3]; Table 14, CCRF-CEM, read-out: Cytotoxic Concentration IC50): 129 nM
IC90 ([3]; Table 14, CCRF-CEM): 755 nM
Cytotoxic Concentration IC95 ([3]; Table 3, CCRF-CEM): 3101 nM
ratio of IC50 to EQI-6 (in parentheses) ([3]; Table 3, CCRF-CEM, EQI-6 = (1)): 398 ×
ratio of IC90 to EQI-6 (in parentheses) ([3]; Table 3, CCRF-CEM, EQI-6 = (1)): 702 ×
ratio of IC95 to EQI-6 (in parentheses) ([3]; Table 3, CCRF-CEM, EQI-6 = (1)): 838 ×
Cytotoxic Concentration IC95 ([3]; Table 14, CCRF-CEM): 1378 nM
IC50 (CCRF-CEM/VBL cells; Table 2, CCRF/VBL (MDR/pg-p), read-out: concentration required to inhibit cell growth by 50% (IC50)): 565 nM
IC50 (CCRF-CEM/VBL cells; Table 3, CCRF-CEM/VBL, read-out: Cytotoxic Concentration IC50): 565 nM
IC90 (CCRF-CEM/VBL cells; Table 3, CCRF-CEM/VBL): 2460 nM
IC50 (CCRF-CEM/VBL cells; Table 14, vinblastine-resistant (VLB100), read-out: Cytotoxic Concentration IC50): 964 nM
IC90 (CCRF-CEM/VBL cells; [7]): 7230 nM
Cytotoxic Concentration IC95 (CCRF-CEM/VBL cells; Table 3, CCRF-CEM/VBL): 4045 nM
ratio of IC50 to EQI-6 (in parentheses) (CCRF-CEM/VBL cells; [8]): 298.9 ×
ratio of IC90 to EQI-6 (in parentheses) (CCRF-CEM/VBL cells; [8]): 396 ×
ratio of IC95 to EQI-6 (in parentheses) (CCRF-CEM/VBL cells; [8]): 434.9 ×
Cytotoxic Concentration IC95 (CCRF-CEM/VBL cells; [7]): 14353 nM
IC50 (CCRF-CEM/VM-1 cells; Table 2, CCRF/VM-1 (MDR/TopoII), read-out: concentration required to inhibit cell growth by 50% (IC50)): 1710 nM
IC50 (CCRF-CEM/VM-1 cells; Table 3, CCRF-CEM/VM-1, read-out: Cytotoxic Concentration IC50): 1710 nM
IC90 (CCRF-CEM/VM-1 cells; Table 3, CCRF-CEM/VM-1): 3570 nM
IC50 (CCRF-CEM/VM-1 cells; Table 14, CCRF-CEM/VM-1, read-out: Cytotoxic Concentration IC50): 4050 nM
IC90 (CCRF-CEM/VM-1 cells; Table 14, CCRF-CEM/VM-1): 11000 nM
Cytotoxic Concentration IC95 (CCRF-CEM/VM-1 cells; Table 3, CCRF-CEM/VM-1): 4586 nM
ratio of IC50 to EQI-6 (in parentheses) (CCRF-CEM/VM-1 cells; [9]): 902.1 ×
ratio of IC90 to EQI-6 (in parentheses) (CCRF-CEM/VM-1 cells; [9]): 401.3 ×
ratio of IC95 to EQI-6 (in parentheses) (CCRF-CEM/VM-1 cells; [9]): 303 ×
Cytotoxic Concentration IC95 (CCRF-CEM/VM-1 cells; Table 14, CCRF-CEM/VM-1): 15391 nM
IC50 ([4]; Homo sapiens, SK-BR-3, Table 2, SK-Br-3 (Breast), read-out: concentration required to inhibit cell growth by 50% (IC50)): 551 nM
IC50 ([4]; Homo sapiens, SK-BR-3, Table 4, SK-Br-3, read-out: Cytotoxic Concentration IC50): 551 nM
IC90 ([4]; Homo sapiens, SK-BR-3, Table 4, SK-Br-3, read-out: Cytotoxic Concentration IC90): 84100 nM
Cytotoxic Concentration IC95 ([4]; Table 4, SK-Br-3): 464700 nM
ratio of IC50 to EQI-6 (in parentheses) ([4]; Table 4, SK-Br-3, EQI-6 = (1)): 16.2 ×
ratio of IC90 to EQI-6 (in parentheses) ([4]; Table 4, SK-Br-3, EQI-6 = (1)): 449.7 ×
ratio of IC95 to EQI-6 (in parentheses) ([4]; Table 4, SK-Br-3, EQI-6 = (1)): 139.7 ×
IC50 ([5]; Homo sapiens, 833K, Table 2, 833K (Testicular), read-out: concentration required to inhibit cell growth by 50% (IC50)): 43 nM
IC50 ([5]; Homo sapiens, 833K, Table 4, 833k, read-out: Cytotoxic Concentration IC50): 43 nM
IC90 ([5]; Homo sapiens, 833K, Table 4, 833k, read-out: Cytotoxic Concentration IC90): 189 nM
Cytotoxic Concentration IC95 ([5]; Table 4, 833k): 311 nM
ratio of IC50 to EQI-6 (in parentheses) ([5]; Table 4, 833k, EQI-6 = (1)): 6.14 ×
ratio of IC90 to EQI-6 (in parentheses) ([5]; Table 4, 833k, EQI-6 = (1)): 7.56 ×
ratio of IC95 to EQI-6 (in parentheses) ([5]; Table 4, 833k, EQI-6 = (1)): 7.97 ×
IC50 ([6]; Table 2, DC-3F, read-out: concentration required to inhibit cell growth by 50% (IC50)): 8.8 nM
IC50 ([6]; Table 4, DC-3F, read-out: Cytotoxic Concentration IC50): 8.8 nM
IC90 ([6]; Table 4, DC-3F): 53 nM
IC50 ([6]; Table 13, DC-3F, read-out: Cytotoxic Concentration IC50): 4 nM
IC90 ([6]; Table 13, DC-3F): 17 nM
Cytotoxic Concentration IC95 ([6]; Table 4, DC-3F): 97.5 nM
ratio of IC50 to EQI-6 (in parentheses) ([6]; Table 4, DC-3F, EQI-6 = (1)): 4.9 ×
ratio of IC90 to EQI-6 (in parentheses) ([6]; Table 4, DC-3F, EQI-6 = (1)): 4.8 ×
ratio of IC95 to EQI-6 (in parentheses) ([6]; Table 4, DC-3F, EQI-6 = (1)): 4.9 ×
Cytotoxic Concentration IC95 ([6]; Table 13, DC-3F): 28 nM
IC50 ([1]; Table 2, DC-3F/ADII (MDR/Actinomycin D), read-out: concentration required to inhibit cell growth by 50% (IC50)): 71 nM
IC50 ([1]; Table 4, DC-3F/ADII, read-out: Cytotoxic Concentration IC50): 70.7 nM
IC90 ([1]; Table 4, DC-3F/ADII): 825 nM
IC50 ([1]; Table 13, DC-3F/ADII, read-out: Cytotoxic Concentration IC50): 33 nM
IC90 ([1]; Table 13, DC-3F/ADII): 180 nM
Cytotoxic Concentration IC95 ([1]; Table 4, DC-3F/ADII): 1902 nM
ratio of IC50 to EQI-6 (in parentheses) [1, 10]: 12 ×
ratio of IC90 to EQI-6 (in parentheses) [1, 10]: 53.6 ×
ratio of IC95 to EQI-6 (in parentheses) [1, 10]: 88.9 ×
Cytotoxic Concentration IC95 ([1]; Table 13, DC-3F/ADII): 321 nM
IC50 (MT2 cells; Homo sapiens, read-out: Cytotoxic Concentration IC50): 19 nM
IC90 (MT2 cells; Homo sapiens, read-out: Cytotoxic Concentration IC90): 38 nM
Cytotoxic Concentration IC95 (MT2 cells): 48 nM

COc1cc([C@@H]2c3cc4c(cc3[C@@H](O[C@@H]3O[C@@H]5CO[C@@H](c6cccs6)O[C@H]5[C@H](O)[C@H]3O)[C@H]3COC(=O)[C@H]23)OCO4)cc(OC)c1O [VM26]
resistance of cell line to VM26 (CCRF-CEM/VM-1 cells; CCRF/VM1 versus CCRF/CEM): 50 fold

CC[C@]1(O)C[C@@H]2CN(CCc3c([nH]c4ccccc34)[C@@](C(=O)OC)(c3cc4c(cc3OC)N(C)[C@H]3[C@@](O)(C(=O)OC)[C@H](OC(C)=O)[C@]5(CC)C=CCN6CC[C@]43[C@@H]65)C2)C1 [vinblastin]
resistance of cell line to vinblastin (CCRF-CEM/VBL cells; CCRF/VBL100 versus CCRF/CEM): 59 fold
